Experimental data taken from patent US20030064954A1, “Cationic amphiphilic 1,4-dihydropyridine derivatives useful for delivery of nucleotide containing compounds” (priority 2000, published 2003).

What was measured:
[1] = Preparation of liposomes (vesicle solution); assay type: physicochemical
Procedure: Cationic liposomes comprising derivatives I-XXI were prepared by dissolving the crystalline derivative in chloroform. The solvent was evaporated under a stream of nitrogen for 45 min in vacuum. The resulting thin films were resuspended in 4 ml deionized water, vortexed and sonicated in bath type sonicator 30′ until the solution became clear. (The final concentration of liposomes was 2.5 mM.) In order to prepare the liposomes of derivatives I-XXI (Table 2) high temperatures (40-65° C.) were used. Derivatives XXII-XXVII (Table 2) were dissolved in deionized water, vortexed and sonicated 5-7 min in a bath sonicator.

[2] = system: CV-1P (African monkey green kidney fibroblasts cells); experiment: In vitro transfection of plasmid DNA, β-galactosidase activity per well; assay type: cell-based; conditions: for transfection efficiency: CVI-P
In short: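 CV-1P cells (20 000/well) given compound/DNA complexes at various charge ratios, prepared in 50 mM MES–50 mM HEPES–75 mM NaCl pH 7.2, 0.6 μg DNA/well, for 5 h at 37 °C, then 45 h in growth medium. Lysates assayed for β-galactosidase via oNPG hydrolysis at 405 nm against an E. coli enzyme standard; efficiency expressed as percent of Lipofectin.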

[3] = system: D407 (human retinal pigment epithelial) cells; experiment: as above; assay type: cell-based; conditions: for transfection efficiency: D 407
Procedure: Transfer of plasmid DNA by various compounds was investigated by using CV-1P (African monkey green kidney fibroblasts cells) and D407 (human retinal pigment epithelial) cells.
The cells were cultured in Dulbecco's modified Eagle's medium (DMEM, Gibco), supplemented with 10% fetal bovine serum (FBS), penicillin/streptomycin (100 units/ml and 100 μg/ml respectively) and 2 mM L-glutamine for D 407 cell line. Cell cultures were maintained at 37° C. in a 7% CO2/air incubator. The cells were collected, counted and seeded in growth medium (100 μl) into 96-well culture plate, 20 000 cells per well. One day later the medium was replaced with fresh medium without serum (150 μl)
The complexes at different derivative/DNA charge ratios for transfection procedure were prepared just before use in 50 mM MES—50 mM HEPES—75 mM NaCl buffer, pH 7.2 in separate 96 well plates. One hour after changing the serum-free medium with 10% serum the complexes were added to the cells at 370C. Dose of DNA per well was 0.6 μg. After 5 h the complexes were removed, the cells were washed with PBS, and the normal growth medium was added. After 45 h of incubation at 37° C. the cells were lysed with 2% Triton X 100, twice deep frozen and the β-galactosidase activity in each well was determined spectrofotometrically with ELx800 automated microplate reader (Bio-Tex Instruments Inc., Winooski, Vt. USA) by monitoring the hydrolysis of o-nitrophenylgalactopyranoside (oNPG) at 405 nm. Purified β-galactosidase from E.coli was used to construct a standard curve and to calculate 9-galactosidase activity in the transfected cells. […] Transfection efficiencies are given as percentage in comparison to transfection efficiency of Lipofectin^R.

D 407 cells = experiment: Cytotoxicity of amphiphile/DNA complexes, percentage of survived cells; assay type: cell-based, human; design: concentration or dose not given beside the values
plasmid DNA = experiment: DNA condensation/complexation, EtBr displacement assay; assay type: binding
In short: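 Plasmid DNA (0.6 μg/well) was mixed with 0.002% EtBr in 20 mM HEPES–150 mM NaCl pH 7.4, then cationic liposomes were added at various +/− charge ratios.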

carotid arteries = experiment: In vivo gene transfer to collared carotid arteries, X-gal staining; design: species or system New Zealand White rabbits; conditions: rabbit carotid artery
Procedure: For in vivo studies derivative/plasmid DNA complexes were prepared by the above mentioned method. After gentle swirling the mixtures were allowed to stand in room temperatures for 30 min. prior to use. The complexes were made in phosphate buffer saline and those having +/−charge ratios of 2-8 were used.
Five New Zealand White male rabbits of 2.5-3.5 kg were used. Fentanyl-fluanisone (0,3 mL/kg, s.c., Janssen Pharmaceutica, Beerse, Belgium) and midazolam (1.5 mg/kg, i.m., Roche, Basel, Switzerland) were used for anesthesia. Carotid arteries were exposed using midline neck incision. Arteries were carefully separated from the surrounding tissue and 3 cm silastic collar (MediGene Oy, Kuopio, Finland) was positioned around the artery. Rabbits were re-anesthetized for gene transfer, which was performed 5 days after the installation of the collars. The collars were opened and filled with 600 μL of the gene transfer solution. Rabbits were sacrificed three days after the gene transfer and arteries were removed for histological analyses.
Collared arteries were divided into three equal parts: the proximal third was immersion-fixed in 4% paraformaldehyde/15% sucrose (pH 7.4) for 4 h, rinsed in 15% sucrose (pH 7.4) overnight and embedded in paraffin. The medial third was stored at −70° C. for later analyses. The distal third was immersion-fixed in 4% paraformaldehyde/phosphate buffered saline (pH 7.4) for 30 min, rinsed 24 h in phosphate buffer (pH 7.2) and embedded in OCT compound.
Ten randomly selected frozen sections (10 μm) from each rabbit were stained with X-gal for 18 h to identify β-galactosidase positive cells. Mayers Carmalum-stain was, used as counter stain.

CVI-P cells = experiment: Cytotoxicity of amphiphile/DNA complexes, percentage of survived cells
[4] = amphiphile/DNA +/− charge ratio 0.5
[5] = amphiphile/DNA +/− charge ratio 1
[6] = amphiphile/DNA +/− charge ratio 2
[7] = amphiphile/DNA +/− charge ratio 4
[8] = amphiphile/DNA +/− charge ratio 8

## 3′,5′-Bis(cholesteryloxycarbonyl)-1′,4′-dihydro-1,2′,6′-trimethyl-3,4′-bipyridinium iodide [XII]
[1]
  vesicle solution preparation, observation in words (phrases split over cells: 'Fast residue & crystalls'; 'No vesicle solution can be prepared'): No

## CCCCCCCCCCCCOC(=O)C1=C(C[n+]2ccccc2)NC(C[n+]2ccccc2)=C(C(=O)OCCCCCCCCCCCC)C1c1ccccc1.[Br-].[Br-] [XXIII, 1,1′-{[3,5-Bis(dodecyloxycarbonyl)-1,4-dihydro-4-phenylpyridine-2,6-diyl]dimethylene}bispyridinium dibromide]
[2]; CV1-P cells, FIG. 4
  level of transfection compared with DOTAP: ten times higher
  level of transfection compared with Lipofectin: at least twenty times higher
[2]; [4]
  transfection efficiency: 0,44 β-galactosidase units per well
[2]; [5]
  transfection efficiency: 0,42 β-galactosidase units per well
[2]; [6]
  transfection efficiency: 65,5 β-galactosidase units per well
[2]; [7]
  transfection efficiency: 122,8 β-galactosidase units per well
[2]; [8]
  transfection efficiency: 22,33 β-galactosidase units per well
[2]; confluent CV1-P cells, without serum, without DOPE
  highest level of beta-galactosidase expression: 208 mU
[3]; [4]
  transfection efficiency: 0,27 β-galactosidase units per well
[3]; [5]
  transfection efficiency: 0,27 β-galactosidase units per well
[3]; [6]
  transfection efficiency: 0,6 β-galactosidase units per well
[3]; [7]
  transfection efficiency: 35,82 β-galactosidase units per well
[3]; [8]
  transfection efficiency: 4,43 β-galactosidase units per well
[3]; D407 cells, FIG. 4
  level of transfection compared with Lipofectin: at least twenty times higher
D 407 cells; [4]
  cytotoxicity as a percentage of survived cells: 93,67%
D 407 cells; [5]
  cytotoxicity as a percentage of survived cells: 87,69%
D 407 cells; [6]
  cytotoxicity as a percentage of survived cells: 79,68%
D 407 cells; [7]
  cytotoxicity as a percentage of survived cells: 70,23%
D 407 cells; [8]
  cytotoxicity as a percentage of survived cells: 11,98%
Plasmid DNA; [4]
  complexation, percentage of the maximum fluorescence signal when EtBr bound to DNA in the absence of an amphiphile: 78,22%
Plasmid DNA; [5]
  complexation, percentage of the maximum fluorescence signal when EtBr bound to DNA in the absence of an amphiphile: 59,03%
Plasmid DNA; [6]
  complexation, percentage of the maximum fluorescence signal when EtBr bound to DNA in the absence of an amphiphile: 48,3%
Plasmid DNA; [7]
  complexation, percentage of the maximum fluorescence signal when EtBr bound to DNA in the absence of an amphiphile: 44,14%
Plasmid DNA; [8]
  complexation, percentage of the maximum fluorescence signal when EtBr bound to DNA in the absence of an amphiphile: 42,48%
Carotid arteries; X-gal staining
  β-galactosidase activity in arteries, result in words: detected at all study groups
Carotid arteries; derivative/plasmid complexes at three charge ratios, three days after gene transfer
  gene transfer efficiency: 0.05-1.5%
Carotid arteries; three charge ratios tested
  most effective charge ratio: +4
CVI-P cells; [4]
  cytotoxicity as a percentage of survived cells: 99,71%
CVI-P cells; [5]
  cytotoxicity as a percentage of survived cells: 94,54%
CVI-P cells; [6]
  cytotoxicity as a percentage of survived cells: 93,48%
CVI-P cells; [7]
  cytotoxicity as a percentage of survived cells: 89,35%
CVI-P cells; [8]
  cytotoxicity as a percentage of survived cells: 42,72%
